We go through 17 molecules from patent US20250312352A1, “GLP-1R MODULATING COMPOUNDS” (Gilead Sciences, Inc., priority 2021, published 2025).

Each structure is given as a SMILES string.

The target of this assay is T1, GLP-1R (Homo sapiens, UniProt P43220).
T1 construct: host or cells: CHO cells
T1 sequence (P43220 24-463): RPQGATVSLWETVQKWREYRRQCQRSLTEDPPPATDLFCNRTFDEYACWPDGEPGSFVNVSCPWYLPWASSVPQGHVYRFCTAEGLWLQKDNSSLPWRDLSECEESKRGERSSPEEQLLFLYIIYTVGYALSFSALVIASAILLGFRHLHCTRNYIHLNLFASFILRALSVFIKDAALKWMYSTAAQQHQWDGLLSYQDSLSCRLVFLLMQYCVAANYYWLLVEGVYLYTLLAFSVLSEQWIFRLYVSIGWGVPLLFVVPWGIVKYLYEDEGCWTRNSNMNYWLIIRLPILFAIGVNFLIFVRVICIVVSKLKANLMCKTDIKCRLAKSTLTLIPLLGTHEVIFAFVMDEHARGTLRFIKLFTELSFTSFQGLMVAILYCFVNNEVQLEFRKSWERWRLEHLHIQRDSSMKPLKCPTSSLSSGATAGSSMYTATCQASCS
The assay can be described thus: GLP-1R activation cAMP assay (Assay 1 or Assay 2). The note with it: cAMP increase in CHO cells stably expressing GLP-1R; compounds run on one of the two cAMP assays. Format: cell-based. The essentials:
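EC50 values come from a sigmoidal fit of HTRF-detected cAMP rise versus log agonist concentration. GLP-1R-expressing CHO cells, equilibrated 1 h at 37 °C in HBSS with HEPES and BSA, received a 10-point compound dose series for 30 min before detection.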
For the molecule `NC(=O)c1cc(F)c(COc2cccc(-c3cc(F)c(Cc4nc5c(F)cc(C(=O)O)cc5n4C[C@@H]4CCO4)cc3F)n2)cn1` [Example 241, (S)-2-(4-(6-((6-carbamoyl-4-fluoropyridin-3-yl)methoxy)pyridin-2-yl)-2,5-difluorobenzyl)-4-fluoro-1-(oxetan-2-ylmethyl)-1H-benzo[d]imidazole-6-carboxylic acid], the EC50 turned out to be 0.12 nM.

As for `Cc1nnc(COc2cccc(-c3cc(F)c(Cc4nc5ccc(C(=O)O)cc5n4C[C@@H]4CCO4)cc3F)n2)s1` [Example 308, (S)-2-(2,5-difluoro-4-(6-((5-methyl-1,3,4-thiadiazol-2-yl)methoxy)pyridin-2-yl)benzyl)-1-(oxetan-2-ylmethyl)-1H-benzo[d]imidazole-6-carboxylic acid], the midpoint of the response, the EC50, lay at 0.683 nM.

In turn, `O=C(O)c1ccc2nc(Cc3cc(F)c(-c4cccc(OCc5ncc(-c6cnn(C7CC7)c6)s5)n4)cc3F)n(C[C@@H]3CCO3)c2c1` [Example 90, (S)-2-(4-(6-((5-(1-cyclopropyl-1H-pyrazol-4-yl)thiazol-2-yl)methoxy)pyridin-2-yl)-2,5-difluorobenzyl)-1-(oxetan-2-ylmethyl)-1H-benzo[d]imidazole-6-carboxylic acid] returned an EC50 of 0.21 nM. Against the preceding molecule, the EC50 is about 3.3-fold lower.

With `O=C(O)c1ccc2nc(Cc3cc(F)c(-c4cccc(OCc5cc6n(n5)CCOC6)n4)cc3F)n(C[C@@H]3CCO3)c2c1` [Example 7, (S)-2-(4-(6-((6,7-dihydro-4H-pyrazolo[5,1-c][1,4]oxazin-2-yl)methoxy)pyridin-2-yl)-2,5-difluorobenzyl)-1-(oxetan-2-ylmethyl)-1H-benzo[d]imidazole-6-carboxylic acid], a half-maximal response (EC50) required 3.71 nM.

For `O=C(O)c1ccc2nc(Cc3cc(F)c(-c4cccc(OCc5ccn(-c6cnn(C(F)F)c6)n5)n4)cc3F)n(C[C@@H]3CCO3)c2c1` [Example 83, (S)-2-(4-(6-((1′-(difluoromethyl)-1′H-[1,4′-bipyrazol]-3-yl)methoxy)pyridin-2-yl)-2,5-difluorobenzyl)-1-(oxetan-2-ylmethyl)-1H-benzo[d]imidazole-6-carboxylic acid], the EC50 amounted to 3.51 nM. This EC50 and that of the molecule before are within 1.5-fold of each other.

Molecule `Cn1cc(C#Cc2cnc(COc3cccc(-c4cc(F)c(Cc5nc6ccc(C(=O)O)cc6n5C[C@@H]5CCO5)cc4F)n3)s2)cn1` [Example 114, (S)-2-(2,5-difluoro-4-(6-((5-((1-methyl-1H-pyrazol-4-yl)ethynyl)thiazol-2-yl)methoxy)pyridin-2-yl)benzyl)-1-(oxetan-2-ylmethyl)-1H-benzo[d]imidazole-6-carboxylic acid] had an EC50 of 0.11 nM.

In the case of `O=C(O)c1ccc2nc(Cc3cc(F)c(-c4cccc(OCc5ncc(OCC(F)(F)F)s5)n4)cc3F)n(C[C@@H]3CCO3)c2c1` [Example 57, (S)-2-(2,5-difluoro-4-(6-((5-(2,2,2-trifluoroethoxy)thiazol-2-yl)methoxy)pyridin-2-yl)benzyl)-1-(oxetan-2-ylmethyl)-1H-benzo[d]imidazole-6-carboxylic acid], a half-maximal effect (EC50) was put at 0.73 nM.

As to `COCc1noc(COc2cccc(-c3cc(F)c(Cc4nc5ccc(C(=O)O)cc5n4C[C@@H]4CCO4)cc3F)n2)n1` [Example 16, (S)-2-(2,5-difluoro-4-(6-((3-(methoxymethyl)-1,2,4-oxadiazol-5-yl)methoxy)pyridin-2-yl)benzyl)-1-(oxetan-2-ylmethyl)-1H-benzo[d]imidazole-6-carboxylic acid], a half-maximal effect (EC50) was put at 8.86 nM. Against the preceding molecule, the EC50 is about 12-fold higher.

Consider `O=C(O)c1ccc2nc(Cc3cc(F)c(-c4cccc(OCc5ncc(-c6cccnc6)s5)n4)cc3F)n(C[C@@H]3CCO3)c2c1` [Example 108, (S)-2-(2,5-difluoro-4-(6-((5-(pyridin-3-yl)thiazol-2-yl)methoxy)pyridin-2-yl)benzyl)-1-(oxetan-2-ylmethyl)-1H-benzo[d]imidazole-6-carboxylic acid], for which the EC50 stood at 0.18 nM.

Consider `Cn1cc(C#Cc2cnc(COc3cccc(-c4cc(F)c(Cc5nc6ccc(C(=O)O)cc6n5C[C@@H]5CCO5)cc4F)n3)nc2)cn1` [Example 154, (S)-2-(2,5-difluoro-4-(6-((5-((1-methyl-1H-pyrazol-4-yl)ethynyl)pyrimidin-2-yl)methoxy)pyridin-2-yl)benzyl)-1-(oxetan-2-ylmethyl)-1H-benzo[d]imidazole-6-carboxylic acid], for which the concentration for a half-maximal effect (EC50) turned out to be 0.52 nM.

In the case of `O=C(O)c1ccc2nc(Cc3cc(F)c(-c4cccc(OCc5nc6cccnc6s5)n4)cc3F)n(C[C@@H]3CCO3)c2c1` [Example 26, (S)-2-(2,5-difluoro-4-(6-(thiazolo[5,4-b]pyridin-2-ylmethoxy)pyridin-2-yl)benzyl)-1-(oxetan-2-ylmethyl)-1H-benzo[d]imidazole-6-carboxylic acid], the concentration for a half-maximal effect (EC50) was 0.23 nM.

As to `O=C(O)c1ccc2nc(Cc3cc(F)c(-c4cccc(OCc5ccc(Cl)s5)n4)cc3F)n(C[C@@H]3CCO3)c2c1` [Example 317, (S)-2-(4-(6-((5-chlorothiophen-2-yl)methoxy)pyridin-2-yl)-2,5-difluorobenzyl)-1-(oxetan-2-ylmethyl)-1H-benzo[d]imidazole-6-carboxylic acid], the EC50 was determined as 0.125 nM.

The molecule `N#Cc1csc(COc2cccc(-c3cc(F)c(Cc4nc5ccc(C(=O)O)cc5n4C[C@@H]4CCO4)cc3F)n2)c1` [Example 130, (S)-2-(4-(6-((4-cyanothiophen-2-yl)methoxy)pyridin-2-yl)-2,5-difluorobenzyl)-1-(oxetan-2-ylmethyl)-1H-benzo[d]imidazole-6-carboxylic acid] had an EC50 of 0.57 nM.

The molecule `O=C(O)c1ccc2nc(Cc3cc(F)c(-c4cccc(OCc5nccn5C(F)F)n4)cc3F)n(C[C@@H]3CCO3)c2c1` [Example 19, (S)-2-(4-(6-((1-(difluoromethyl)-1H-imidazol-2-yl)methoxy)pyridin-2-yl)-2,5-difluorobenzyl)-1-(oxetan-2-ylmethyl)-1H-benzo[d]imidazole-6-carboxylic acid] displayed an EC50 of 23.2 nM.

In turn, `N#CC1(NC(=O)c2cc(Cl)c(COc3cccc(-c4cc(F)c(Cc5nc6ccc(C(=O)O)cc6n5C[C@@H]5CCO5)cc4F)n3)cn2)CCC1` [Example 189, (S)-2-(4-(6-((4-chloro-6-((1-cyanocyclobutyl)carbamoyl)pyridin-3-yl)methoxy)pyridin-2-yl)-2,5-difluorobenzyl)-1-(oxetan-2-ylmethyl)-1H-benzo[d]imidazole-6-carboxylic acid] gave an EC50 of 0.3 nM.

`O=C(O)c1ccc2nc(Cc3cc(F)c(-c4cccc(OCc5ccc(C#Cc6cncnc6)cc5F)n4)cc3F)n(C[C@@H]3CCO3)c2c1` [Example 138, (S)-2-(2,5-difluoro-4-(6-((2-fluoro-4-(pyrimidin-5-ylethynyl)benzyl)oxy)pyridin-2-yl)benzyl)-1-(oxetan-2-ylmethyl)-1H-benzo[d]imidazole-6-carboxylic acid] showed an EC50 of 0.28 nM.

With `O=C(O)c1ccc2nc(Cc3cc(F)c(-c4cccc(OCc5ccc(C#Cc6cnc(Cl)nc6)cc5)n4)cc3F)n(C[C@@H]3CCO3)c2c1` [Example 403, (S)-2-(4-(6-((4-((2-chloropyrimidin-5-yl)ethynyl)benzyl)oxy)pyridin-2-yl)-2,5-difluorobenzyl)-1-(oxetan-2-ylmethyl)-1H-benzo[d]imidazole-6-carboxylic acid], the concentration for a half-maximal effect (EC50) was determined as 0.096 nM.
